The results in this text go back to patent US20240325553A1, “CYTOSTATIC CONJUGATES WITH INTEGRIN LIGANDS” (priority 2018, published 2024).

Molecules are shown by their SMILES. Where two headings read alike, the source gives them in different places. Marks after values point to notes of the source that are not given here.

A word on the solubility: it is the concentration that dissolves in the medium under given conditions.

One series concerns the target T1, αvβ3 receptor (Homo sapiens, UniProt P05106+P06756).
T1 construct: αvβ3 from human A375 cells was purified analogously to a procedure described by Wong et al; endogenous in cells; host or cells: human A375 cells (receptor purified from the cells)
Kind of series: αvβ3 binding test (echistatin SPA). The procedure:
αvβ3 from human A375 cells was purified analogously to a procedure described by Wong et al. in Molecular Pharmacology 50, 529-537 (1996). In each case, 10 μL of αvβ3 (5 ng) in TBS PH 7.6, 2 mM CaCl2. 1 mM MgCl2. 1% n-octylglucopyranoside (Sigma): 10 μL of test substance in TBS pH 7.6. 0.1% DMSO and 45 μL of TBS pH 7.6. 2 mM CaCl2, 1 mM MgCl2, 1 mM MnCl2 were incubated at room temperature for 1 h. In each case, 25 μL of WGA SPA beads (Amersham, 4 mg/ml) and 10 μL of echistatin (0.1 μCi, Amersham, chloramine-T labelled) were then added. After 16 h at room temperature, the samples were measured in a scintillation measuring apparatus (Wallac 1450).

The test system of the next series is 786-O cell line. In words: Cytotoxicity in vitro (MTT) in the presence and absence of elastase, 786-O. It counts as cell-based. The procedure:
(§1) Cultivation of cells was performed according to standard procedures with the media recommended by the provider. The cells in a total volume of 100 μL were seeded in a 96-well plate with white bottom (#3610). After a 24 h incubation period at 37° C. and 5% CO2, the medium was changed by adding 90 μL fresh medium. The treatment starts by adding the test compound to the cells in 10 μl of culture medium. Concentrations from 10^−5 M to 10^−13 M in triplicates were chosen followed by an incubation at 37° C. and 5% carbon dioxide. One set of samples were only treated with the test compound whereas to an otherwise identically treated second set of samples also 10 nM elastase was pipetted. After 72 h. the proliferation is detected using the MTT assay (ATCC). At the end of the incubation period the MTT reagent is added to all samples for 4 h, followed by lysis of the cells overnight by addition of the detergent. The dye formed was detected at 570 nm. The proliferation of cells which were not treated with test substance but were otherwise identically treated was defined as the 100% value. (FIG. 1 and table 4).

Another series deals with HT29 cell line. In words: Cytotoxicity in vitro (MTT) in the presence and absence of elastase, HT29. It counts as cell-based. Conditions: 72 h. The procedure:
as §1

The nature of a further series: Solubility in vehicles. It counts as physicochemical. As to conditions: room temperature (25° C.). The procedure: Method: For each vehicle to be tested. 0.5-1.0 mg test compound were weighed into a 2 ml Eppendorf vial. 2-3 Glas perls (Ø 3 mm) and 1.0 ml vehicle were added. The vial was shaken at 1400 rpm for 24 hrs at room temperature (25° C.). After this time period the supernatant (approx. 230 μl was transferred to a centrifuge tube. After 30 min at 42 000 rpm the solute was transferred to another vial and diluted with DMSO (1:5 and 1:50). These two dilutions were analyzed by HPLC (read out: area)
• Eluent A: 1 ml Trifluoro acetic acid/L water • Eluent B: 1 ml Trifluoro acetic acid/L acetonitrile • Gradient:
• Column: ZORBAX Extend-C18, 3.0×50 mm, 3, 5 μm • Oven temperature: 30° C. • Detection: 214 and 254 nm • Injection volume: 20 μl
For quantification a calibration curve was obtained from DMSO solution of the test compound ([…], 20 μg/ml and 2.5 μg/ml) by employing the same HPLC method.

A short description of series [1]: Stability in citric acid buffer at pH 4. Conditions: 37° C., peak area. It counts as physicochemical. The procedure: Method: 0.15 mg of the test compound were solved in 0.1 ml dimethylsulfoxide and 0.4 ml acetonitrile. For complete dissolution the HPLC vial with the sample solution was shaken and sonicated. Then 1.0 ml of the respective buffer solution (Citrate buffer pH 4; citric acid/sodium hydroxide/sodium chloride Fluka 33643) was added and the sample was vortexed. The sample solution was analysed by HPLC to determine the amount of the test compound and up to two byproducts at a particular time (0, 1, 2 4, 24 hrs) over a period of 24 h at 37° C. t(0) values resulted from a sample immediately taken after vortexing with buffer at RT. The peak areas (in percentage) were used for quantification.
LC & LC/MS purity analysis: The starting material was analyzed for purity by LC; the 24 h sample was additionally analyzed by LC/MS (Waters Quattro Micro).

The nature of series [2]: Plasma stability in rat plasma. It counts as in vitro ADME. Conditions: 37° C. The procedure:
For complete dissolution the HPLC vial was shaken and treated with ultrasound. 500 μl of this solution were added to 0.5 mL of rat plasma with vortexing at a temperature of 37° C. Aliquots (10 μL each) were taken at respective time points and analyzed by HPLC to determine the amount of the test compound. All data is given as percent area of the initial compound at t0.

Series [3] concerns MX1 xenograft (breast cancer). Kind of series: In vivo xenotransplantation study, MX1. Details: species or system mice. As to conditions: MX1, 36 mg/kg i.v., 3 days on, 4 days off, 3 cycles; mean tumor area. The procedure: (§2) For this purpose, immunocompromised mice were implanted subcutaneously with tumor cells or tumor fragments. […] Intravenous treatments were performed on three consecutive days once daily followed by four days drug holiday without treatments. The tumor size and the body weight were determined at least weekly. The tumor area was detected by means of an electronic caliper [length (mm)×width (mm)]. The experimental groups were ended when the group reached the pre-determined ethical endpoint based on German and European animal welfare regulations. In vivo anti-tumor efficacy is presented as T/C ratio of mean tumor area measured for treatment and control group on the last day at which the vehicle control remained in study (Treatment/Control; mean tumor area of treatment group/mean tumor area of control group. A compound having a T/C below 0.5 is defined as active (i.e., effective). Statistical analysis was assessed using SigmaStat software. A one-way analysis of variance was performed and differences to the control were compared by a pair-wise comparison procedure (Dunn's method).

Series [4] concerns SW-480 xenograft (colon cancer). In words: In vivo xenotransplantation study, SW-480. Further details: species or system mice. As to conditions: SW-480, 36 mg/kg i.v., 3 days on, 4 days off, 3 cycles; mean tumor area. The procedure: as §2
For series [5], the system named is NCI-H69 xenograft (lung cancer). In words: In vivo xenotransplantation study, NCI-H69. Further details: species or system mice. Conditions: NCI-H69, 40 mg/kg i.v., 3 days on, 4 days off, 3 cycles; mean tumor area. The procedure: as §2
Series [6] deals with 786-O xenograft (renal cancer). Kind of series: In vivo xenotransplantation study, 786-O. Details: species or system mice. As to conditions: 36 mg/kg i.v., 3 days on, 4 days off, 3 cycles, mean tumor area. The procedure:
as §2

T1 sequence (P06756 31-889 limits assumed): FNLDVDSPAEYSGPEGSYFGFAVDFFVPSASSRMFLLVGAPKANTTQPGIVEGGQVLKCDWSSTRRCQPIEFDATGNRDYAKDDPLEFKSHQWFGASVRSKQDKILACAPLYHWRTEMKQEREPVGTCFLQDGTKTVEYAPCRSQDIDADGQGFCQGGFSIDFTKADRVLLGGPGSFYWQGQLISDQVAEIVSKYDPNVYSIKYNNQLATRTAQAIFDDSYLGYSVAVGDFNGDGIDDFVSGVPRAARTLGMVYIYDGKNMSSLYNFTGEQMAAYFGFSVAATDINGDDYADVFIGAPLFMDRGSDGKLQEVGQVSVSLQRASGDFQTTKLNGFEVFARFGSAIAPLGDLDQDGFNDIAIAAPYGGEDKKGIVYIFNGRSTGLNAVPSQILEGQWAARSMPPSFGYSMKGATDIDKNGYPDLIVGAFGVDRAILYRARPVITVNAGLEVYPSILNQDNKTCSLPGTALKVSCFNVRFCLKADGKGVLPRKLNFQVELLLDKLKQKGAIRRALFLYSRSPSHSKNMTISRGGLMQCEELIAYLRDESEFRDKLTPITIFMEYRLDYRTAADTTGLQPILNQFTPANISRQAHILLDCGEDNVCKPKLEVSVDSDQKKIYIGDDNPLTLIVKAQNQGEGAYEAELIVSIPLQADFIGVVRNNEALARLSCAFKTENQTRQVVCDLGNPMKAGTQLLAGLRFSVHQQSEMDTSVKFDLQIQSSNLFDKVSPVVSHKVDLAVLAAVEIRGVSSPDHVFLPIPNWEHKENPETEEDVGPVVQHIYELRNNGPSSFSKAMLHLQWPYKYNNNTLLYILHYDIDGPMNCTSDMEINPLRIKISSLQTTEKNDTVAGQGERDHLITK
T1 sequence (P06756 891-1048 partner limits assumed): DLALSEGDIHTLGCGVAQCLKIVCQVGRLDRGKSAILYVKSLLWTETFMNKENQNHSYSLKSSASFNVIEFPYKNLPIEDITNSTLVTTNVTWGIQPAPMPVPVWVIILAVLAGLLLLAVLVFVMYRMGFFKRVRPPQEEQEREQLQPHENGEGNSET
T1 sequence (P05106 27-788): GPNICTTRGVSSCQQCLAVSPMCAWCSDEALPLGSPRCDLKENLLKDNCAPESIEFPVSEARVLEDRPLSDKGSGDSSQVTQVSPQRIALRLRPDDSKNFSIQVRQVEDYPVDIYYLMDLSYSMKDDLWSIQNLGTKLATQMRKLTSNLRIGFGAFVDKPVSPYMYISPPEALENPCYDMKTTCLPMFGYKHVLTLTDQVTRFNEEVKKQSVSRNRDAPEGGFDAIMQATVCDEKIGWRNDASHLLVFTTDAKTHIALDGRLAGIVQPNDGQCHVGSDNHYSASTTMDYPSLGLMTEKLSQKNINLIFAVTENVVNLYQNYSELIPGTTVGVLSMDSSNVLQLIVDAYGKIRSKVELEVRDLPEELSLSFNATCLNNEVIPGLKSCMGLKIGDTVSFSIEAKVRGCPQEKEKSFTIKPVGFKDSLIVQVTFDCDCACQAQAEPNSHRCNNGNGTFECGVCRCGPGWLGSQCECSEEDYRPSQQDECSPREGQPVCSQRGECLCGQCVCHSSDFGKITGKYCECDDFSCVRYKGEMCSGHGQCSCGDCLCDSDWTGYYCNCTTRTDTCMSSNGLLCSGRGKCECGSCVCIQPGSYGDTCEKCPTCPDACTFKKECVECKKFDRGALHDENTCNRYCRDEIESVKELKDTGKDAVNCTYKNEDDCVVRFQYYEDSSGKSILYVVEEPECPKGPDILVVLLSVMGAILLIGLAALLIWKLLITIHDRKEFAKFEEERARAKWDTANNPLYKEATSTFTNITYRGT

For the molecule `CCCNC(=O)Nc1cccc(S(=O)(=O)Nc2cccc([C@@H](CC(=O)[O-])NC(=O)Nc3ccc(NC(=O)NCCOCCOCCOCCC(=O)N[C@@H](CC(=O)[O-])C(=O)N4CCC[C@H]4C(=O)N[C@H](C(=O)O[C@]4(CC)C(=O)OCc5c4cc4n(c5=O)Cc5c-4nc4ccccc4c5CC)C(C)C)cc3)c2)c1.[Na+].[Na+]` [Example 1, disodium (4S)-4,11-diethyl-3,14-dioxo-3,4,12,14-tetrahydro-1H-pyrano[3′,4′: 6,7]indolizino [1,2-b]quinolin-4-yl 1-{(2S)-2-(carboxylatomethyl)-17-[4-({[(1R)-2-carboxylato-1-{3-[({3-[(propyl-carbamoyl)amino]phenyl}sulfonyl)amino]phenyl}ethyl]carbamoyl}amino)anilino]-4,17-dioxo-7,10,13-trioxa-3,16-diazaheptadecan-1-oyl}-L-prolyl-L-valinate], the IC50 was found to be 29 nM at αvβ3 receptor; 1.1 nM in the series on 786-O cell line (72 h, MTT, 10 nM elastase, read-out: 786-O cell line IC50 w elastase); 188 nM in the series on 786-O cell line (72 h, MTT, without elastase, read-out: 786-O cell line IC50 w/o elastase); 0.17 nM in the series with 786-O cell line (side by side comparison, elastase with higher enzymatic activity used, read-out: 786-O cell line IC50 w elastase); 28 nM with 786-O cell line (side by side comparison, without elastase, read-out: 786-O cell line IC50 w/o elastase); 8.7 nM with HT29 cell line (10 nM elastase, read-out: HT29 cell line IC50 w elastase). Also, in the series with HT29 cell line (without elastase, read-out: HT29 cell line IC50 w/o elastase), the IC50 is 245 nM. The molecule also came in with a Specificity factor in the series on 786-O cell line (786-O, IC50 w/o elastase versus w elastase) of 165. Moreover, the figures for the solubility at 24 h in “Solubility in vehicles” (read-out: Solubility in 0.9% NaCl in H2O) and in “Solubility in vehicles” (read-out: Solubility in 5% D-Mannitol) were 465 µg/mL and > 500 µg/mL, respectively. In addition, in series [1] (4 h), the “Stability in citric acid buffer at pH 4, 4h” value is 100%. For the same molecule, the “Stability in citric acid buffer at pH 4, 24h” value in series [1] (24 h) was determined as 95%. Besides, in [2], the “stable in rat plasma for” value is > 24 h. In addition, the T/C was 0.03* in [3], 0.1* in [4], 0.06* in series [5] and 0.19* in [6].
